Measurements taken from US8642625B2, “Therapeutic agent or preventive agent for urine collection disorder” (Toray Industries, Inc., priority 2010, dated 2014).
Like-named read-outs stand apart in the source and are kept apart here.

Experiments:
[1] = system: mouse acetic acid writhing model; assay: Mouse acetic acid writhing model (effects on pain); type: in vivo; conditions: oral, 45 minutes before 0.6% acetic acid i.p., read-out: ED50 (dose by which the writhing response was inhibited by 50%)
Protocol: The mouse acetic acid writhing model, by which pain can be evaluated, was used to evaluate the analgesic effect of Compound (I).
Male ddY mice of 5 to 6 weeks old were fasted for 16 hours while allowing them to freely drink water, and a test compound solution or its vehicle was orally administered (10 mL/kg) to them. DMSO:Tween80:distilled water (1:1:8) or 27% hydroxypropyl-β-cyclodextrin (hereinafter “HP-β-CD”) was used as a vehicle of test compound solutions. Forty five minutes after the administration, 0.6% acetic acid solution (10 mL/kg) was intraperitoneally administered thereto to induce writhing response (i.e., the behavior to stretch the body and/or bend the body backward). The number of the writhing response observed for 10 minutes from 10 minutes after the administration of acetic acid solution was counted, which was taken as an indicator of pain.
Taking the mean number of writhing response of the vehicle group as 100%, the dose of a test compound by which the response was inhibited by 50% was expressed as “ED50”.

[2] = molecular target: T1, human muscarinic M3 receptor (Homo sapiens, UniProt P20309); assay: Binding ability to human muscarinic receptors ([3H]N-Methylscopolamine); conditions: 0.8 nmol/L [3H]N-Methylscopolamine, CHO cells
T1 construct: expressed in transfected cells; host or cells: CHO cells
Protocol: (§1) CHO cells expressing human muscarinic M1, 2, 3, 4 and 5 receptors, respectively, were used (Buckley N J et al., Mol. Pharmacol., 1989, vol. 35, no. 4, p. 469-476). Receptor binding experiments were carried out according to a conventional method (Luthin G R et al., Pharmacol Exp Ther., 1984, vol. 228, no. 3, p. 648-655). As a radiolabeled ligand, 0.8 nmol/L [^3H]N-Methylscopolamine was used; and as a nonspecific ligand, 1 μmol/L Atoropine was used.

[3] = molecular target: T2, human muscarinic M4 receptor (Homo sapiens, UniProt P08173); assay: as above; conditions: 0.8 nmol/L [3H]N-Methylscopolamine, CHO cells
T2 construct: expressed in transfected cells; host or cells: CHO cells
T2 sequence (P08173 1-479): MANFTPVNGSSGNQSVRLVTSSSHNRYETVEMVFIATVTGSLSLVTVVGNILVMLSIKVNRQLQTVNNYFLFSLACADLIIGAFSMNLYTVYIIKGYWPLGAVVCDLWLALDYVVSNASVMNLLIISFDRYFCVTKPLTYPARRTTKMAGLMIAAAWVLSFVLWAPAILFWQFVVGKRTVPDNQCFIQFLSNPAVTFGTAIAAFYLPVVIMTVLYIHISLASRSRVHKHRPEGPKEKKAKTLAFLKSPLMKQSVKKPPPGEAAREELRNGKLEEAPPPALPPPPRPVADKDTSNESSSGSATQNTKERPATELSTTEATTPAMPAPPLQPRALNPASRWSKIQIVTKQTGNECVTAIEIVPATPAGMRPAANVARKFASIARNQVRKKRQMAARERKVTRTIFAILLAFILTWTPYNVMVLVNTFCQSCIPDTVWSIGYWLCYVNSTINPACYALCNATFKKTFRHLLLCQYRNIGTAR
Protocol: as §1

[4] = molecular target: T3, human muscarinic M5 receptor (Homo sapiens, UniProt P08912); assay: as above; conditions: 0.8 nmol/L [3H]N-Methylscopolamine, CHO cells
T3 construct: expressed in transfected cells; host or cells: CHO cells
T3 sequence (P08912 1-532): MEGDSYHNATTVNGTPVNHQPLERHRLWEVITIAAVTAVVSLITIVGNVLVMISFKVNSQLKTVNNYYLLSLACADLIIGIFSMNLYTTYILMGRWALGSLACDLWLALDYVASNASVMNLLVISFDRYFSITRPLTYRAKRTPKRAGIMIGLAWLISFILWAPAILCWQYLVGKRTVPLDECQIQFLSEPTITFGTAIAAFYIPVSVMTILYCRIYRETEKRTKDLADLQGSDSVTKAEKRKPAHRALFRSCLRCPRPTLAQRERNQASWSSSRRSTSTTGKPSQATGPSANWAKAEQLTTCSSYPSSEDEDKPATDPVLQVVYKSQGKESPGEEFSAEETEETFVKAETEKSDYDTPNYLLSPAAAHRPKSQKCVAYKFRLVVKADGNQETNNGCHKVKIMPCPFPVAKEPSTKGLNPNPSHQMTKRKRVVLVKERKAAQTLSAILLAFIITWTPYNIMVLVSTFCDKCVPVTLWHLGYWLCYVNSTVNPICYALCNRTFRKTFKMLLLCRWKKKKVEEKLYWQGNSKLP
Protocol: as §1

[5] = molecular target: T4, human muscarinic M2 receptor (Homo sapiens, UniProt P08172); assay: as above; conditions: 0.8 nmol/L [3H]N-Methylscopolamine, CHO cells
T4 construct: expressed in transfected cells; host or cells: CHO cells
T4 sequence (P08172 1-466): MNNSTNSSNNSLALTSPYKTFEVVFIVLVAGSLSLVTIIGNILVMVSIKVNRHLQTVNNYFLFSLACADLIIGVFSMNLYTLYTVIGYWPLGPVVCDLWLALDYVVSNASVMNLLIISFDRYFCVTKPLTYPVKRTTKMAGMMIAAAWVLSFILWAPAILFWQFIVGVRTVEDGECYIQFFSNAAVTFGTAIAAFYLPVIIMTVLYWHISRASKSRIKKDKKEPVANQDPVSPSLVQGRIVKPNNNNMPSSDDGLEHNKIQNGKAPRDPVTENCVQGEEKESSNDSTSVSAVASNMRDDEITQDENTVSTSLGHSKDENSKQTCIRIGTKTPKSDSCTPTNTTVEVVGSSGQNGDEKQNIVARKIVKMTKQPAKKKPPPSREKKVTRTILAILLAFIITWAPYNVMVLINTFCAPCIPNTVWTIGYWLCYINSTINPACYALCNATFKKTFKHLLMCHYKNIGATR
Protocol: as §1

[6] = molecular target: T5, human muscarinic M1 receptor (Homo sapiens, UniProt P11229); assay: as above; conditions: 0.8 nmol/L [3H]N-Methylscopolamine, CHO cells
T5 construct: expressed in transfected cells; host or cells: CHO cells
T5 sequence (P11229 1-460): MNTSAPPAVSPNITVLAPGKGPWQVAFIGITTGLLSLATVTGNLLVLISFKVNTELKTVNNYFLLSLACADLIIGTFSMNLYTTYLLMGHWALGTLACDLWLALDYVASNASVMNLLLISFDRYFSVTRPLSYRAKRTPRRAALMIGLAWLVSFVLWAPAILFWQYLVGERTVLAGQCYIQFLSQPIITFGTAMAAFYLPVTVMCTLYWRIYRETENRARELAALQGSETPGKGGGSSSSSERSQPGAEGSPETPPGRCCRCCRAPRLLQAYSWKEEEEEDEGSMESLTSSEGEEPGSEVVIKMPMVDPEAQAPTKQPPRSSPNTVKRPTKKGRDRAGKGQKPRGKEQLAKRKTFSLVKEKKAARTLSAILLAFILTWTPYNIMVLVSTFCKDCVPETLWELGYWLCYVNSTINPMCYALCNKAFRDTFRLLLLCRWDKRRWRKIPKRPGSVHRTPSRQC
Protocol: as §1

[7] = system: cyclophosphamide-induced pollakiuria model rats; assay: Effects in cyclophosphamide-induced pollakiuria model rats (continuous cystometrograms); type: in vivo, rat; conditions: 5 mg/kg intravenous; 20 minutes after vs 20 minutes before administration; compared to the vehicle group, p<0.05
Protocol: In the experiments, 6 to 7 female SD rats of 7 to 11 weeks old were used for one experimental group. The pollakiuria model (Lecci A et al., British Journal of Pharmacology, 2000, vol. 130, p. 331) was prepared by intraperitoneally administering cyclophosphamide (SIGMA) to rats (150 mg/kg). This model has been considered to be useful as a model of urine storage disorders associated with inflammatory disease, in particular, a model of pollakiuria of interstitial cystitis. Four to five hours after administration of cyclophosphamide, pollakiuria model rats were anesthetized by intraperitoneal administration of urethane (1 g/kg). Thereafter, a small incision was formed in the hypogastrium, and both ureters were ligated, followed by forming small incision in the ureters at the side of the kidney. Next, the bladder apex of each pollakiuria model rat was incised, and a polyethylene tube filled with physiological saline was inserted and indwelled. […]
The number of voiding episodes was counted based on CMGs. Taking the number of voiding episodes counted for a time period of 20 minutes before the administration of the test compound as 100%, the number of voiding episodes counted for a time period of 20 minutes after the administration of the test compound was expressed in %, which was used as the ratio of change in the number of voiding episodes. […]

[8] = system: muscarinic receptor subtypes; assay: Binding ability to human muscarinic receptors, overall statement; conditions: any of M1 to M5; 10 μmol/L
Protocol: as §1

T1 sequence (P20309 whole entry): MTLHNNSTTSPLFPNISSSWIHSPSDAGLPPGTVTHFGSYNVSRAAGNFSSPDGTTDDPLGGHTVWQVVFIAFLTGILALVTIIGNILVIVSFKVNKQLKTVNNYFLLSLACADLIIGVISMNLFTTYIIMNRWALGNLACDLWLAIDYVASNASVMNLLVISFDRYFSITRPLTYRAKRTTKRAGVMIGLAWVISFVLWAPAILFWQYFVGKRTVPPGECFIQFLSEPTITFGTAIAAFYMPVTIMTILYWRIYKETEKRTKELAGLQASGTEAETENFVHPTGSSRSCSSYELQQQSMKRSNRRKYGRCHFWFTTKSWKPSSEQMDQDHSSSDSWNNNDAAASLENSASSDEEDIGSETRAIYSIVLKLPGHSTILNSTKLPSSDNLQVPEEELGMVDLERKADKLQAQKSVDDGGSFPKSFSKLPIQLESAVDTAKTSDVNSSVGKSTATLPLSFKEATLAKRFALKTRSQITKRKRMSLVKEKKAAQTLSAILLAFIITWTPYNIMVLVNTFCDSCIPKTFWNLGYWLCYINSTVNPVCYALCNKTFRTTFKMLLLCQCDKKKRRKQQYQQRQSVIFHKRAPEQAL

SMILES | ED50 ([1]; Vehicle B (HP-β-CD)) [mg/kg] | also measured
COc1ccc(-n2nc(C3(O)CCC(OC(=O)OC4CCCCC4)CC3)cc2-c2ccc(C)cc2)cc1 (stereo not drawn) [Compound 60, cyclohexyl 4-hydroxy-4-(1-(4-methoxyphenyl)-5-(p-tolyl)-1H-pyrazol-3-yl)-cis-cyclohexyl carbonate] | 6.18 | 
Cc1ccc(-c2cc(C3(O)CCC(O)CC3)nn2-c2ccc(C#N)cc2)cc1 (stereo not shown) [Compound 49] | 2.69 | 
COc1ccc(-n2nc(C3(O)CCC(OC(C)=O)CC3)cc2-c2ccc(C)cc2)cc1 (stereo not shown) [Compound 12, c-4-hydroxy-4-(1-(4-methoxyphenyl)-5-(p-tolyl)-1H-pyrazol-3-yl)-cyclohexan-r-1-yl acetate] | 1.77 | 
CCOC(=O)OC1CCC(O)(c2cc(-c3ccc(C)cc3)n(-c3ccc(OC)cc3)n2)CC1 (stereo not shown) [Compound 61] | 4.79 | 
COc1ccc(-n2nc(C3(O)CCC(O)CC3)cc2-c2ccc(C)cc2)cc1F (stereo not shown) [Compound 54] | 3.73 | 
COc1ccc(-n2nc(C3(O)CCC(O)CC3)cc2-c2ccc(C)nc2)cc1 (stereo not drawn) [Compound 15, 1-(1-(4-methoxyphenyl)-5-(6-methylpyridin-3-yl)-1H-pyrazol-3-yl)cyclohexan-cis-1,4-diol] | 6.07 | 
COc1ccc(-n2nc(C3(O)CCC(=O)CC3)cc2-c2ccc(C)cc2)cc1 [Compound 4, 4-hydroxy-4-(1-(4-methoxyphenyl)-5-(p-tolyl)-1H-pyrazol-3-yl)cyclohexan-1-one] |  | ED50 ([1]; Vehicle A (DMSO:Tween80:distilled water=1:1:8)): 1.95 mg/kg
COc1ccc(-n2nc(C3(O)CCC(O)CC3)cc2-c2ccc(C)cc2)cc1 (stereo not drawn) [Compound 3, 1-(1-(4-methoxyphenyl)-5-(p-tolyl)-1H-pyrazol-3-yl)cyclohexan-cis-1,4-diol] |  | Inhibition Ratio by 10 μmol/L Compound 3 (%) [2]: −4%; Inhibition Ratio by 10 μmol/L Compound 3 (%) [3]: −1%; Inhibition Ratio by 10 μmol/L Compound 3 (%) [4]: −4%; Inhibition Ratio by 10 μmol/L Compound 3 (%) [5]: −6%; Inhibition Ratio by 10 μmol/L Compound 3 (%) [6]: −10%; increase in the number of voiding episodes (ratio of change in the number of voiding episodes) [7]: significantly improved; binding to muscarinic receptor subtypes [8]: did not bind
COc1ccc(-c2nc(C3(O)CCC(O)(C(F)(F)F)CC3)sc2-c2ccc(C)cc2)cc1 (stereo not drawn) [Compound 46, 1-(4-(4-methoxyphenyl)-5-(p-tolyl)thiazol-2-yl)-4-(trifluoromethyl)cyclohexan-cis-1,4-diol] | 9.65 | 
COc1ccc(-n2nc(C3(O)CCC(O)CC3)cc2-c2ccc(C#N)cc2)cc1 (stereo not shown) [Compound 51] | 4.69 | 
